{"source": "patent US20260137079A1", "about": "“DISPENSER AND METHOD OF USE THEREOF” (priority 2019, published 2026)", "assay": "Suppression of recrystallization of actives that are solid at room temperature", "type": "physicochemical", "conditions": "glycol ether solvent with Transfluthrin (TFT)", "data": [{"smiles": "COCC(C)OCC(C)OC", "note": "(stereo not shown) [DMM, Dipropylene glycol Dimethyl Ether]", "values": [{"measurement": "effect on recrystallization of actives solid at room temperature", "result": "suppress the recrystallization"}]}]}
